For orientation: Kd means the constant that tells how readily two partners part at equilibrium.

For one data set, the system named is Human erythrocytes. Description: Hemolysis assay. It is filed as cell-based. Conditions: 250 µM, pH 7.2. How it is done: For hemolysis measurements 10% (vol/vol) suspensions of human erythrocytes with peptides were used. Phosphate buffer saline (PBS, 10 mM, pH 7.2) was used to rinse human red blood cells (4x) using repeated centrifugation and re-suspension (3 min, 3000 × g). The cells were incubated for 1 h at room temperature in deionized water (fully hemolysed control), with peptide in PBS or just PBS, which was followed by centrifugation (5 min, 10000 × g). The obtained supernatant was then separated from the pellet, and absorbance (550 nm) was measured in a SpectraMax i3x multi-mode microplate reader (Molecular Devices). Absorbance obtained for the suspension that was treated with deionized water gave complete (100%) hemolysis. Table S1 summarises the results, with the values corresponding to % hemolysis for peptide at 250 μM. All tests were performed in triplicate.

The next data set has as its system M. luteus (ATCC 49732). It is filed as cell-based. The settings on record: ATCC 49732, 24 h. The method, then: (§1) MIC values were obtained using broth microdilution against different bacteria following the protocols by Clinical and Laboratory Standards Institute. Specifically, each bacterium (100 μL of 0.5–1 × 10^6 CFU per ml) in Mueller Hinton media broth (Oxoid) was incubated in 96-well microtiter plates at 37 °C on a 3D orbital shaker. 100 μL of serial twofold peptide dilutions (from 100 to 0 μM) were used. Following peptide addition, absorbance (600 nm) was measured in a SpectraMax i3x multi-mode microplate reader (Molecular Devices). The lowest peptide concentrations inhibiting visible bacterial growth after 24 h at 37 °C was defined as MICs. All tests were performed in triplicate.

In another data set the test system is E. coli (ATCC 15597). Format: cell-based. The settings on record: ATCC 15597, 24 h. How it is done: as §1
The subject of data set [1] is K. pneumoniae (NCTC 5055). It is filed as cell-based. The settings on record: NCTC 5055, 24 h. How it is done: as §1
A further data set concerns S. aureus (ATCC 6538). Format: cell-based. Conditions: ATCC 6538, 24 h. The method, then: as §1
Data set [2] has as its system P. aeruginosa (ATCC 27853). Format: cell-based. The settings on record: ATCC 27853, 24 h. The method, then:
as §1

For a further data set, the system named is B. subtilis (ATCC 6633). Format: cell-based. The settings on record: ATCC 6633, 24 h. The method, then:
as §1

For a further data set, the system named is S. typhimurium (6192). It is filed as cell-based. The settings on record: 6192, 24 h. How it is done: as §1
Data set [3] concerns the target DLPC/DLPG (3:1 molar ratio) unilamellar vesicles. Description: Isothermal titration calorimetry, anionic vesicles. Conditions: ITC, peptide (500 μM) titrated into DLPC/DLPG (3:1) vesicles (380 μM total lipid), 25 °C, one-set binding model, duplicate; read-out: dissociation constant (KD). How it is done: The lipids used for the assembly of unilamellar vesicles were from Avanti Polar Lipids: 1,2-dilauroylphosphatidylcholine (DLPC) was used for zwitterionic vesicles, while its mixture with 1,2-dilauroyl-sn-glycero-3-phospho-(1’-rac-glycerol) (DLPG) at a 3:1 molar ratio was used for anionic vesicles. After weighting up the lipid aliquots were dissolved in chloroform and dried under a nitrogen stream until a thin film was formed. The obtained film was subjected to hydration in 10 mM phosphate buffer (pH 7.4), which was followed by vortexing (1x, 2 min) and sonication (1x, 30 min). A hand-held extruder (Avanti Polar lipids) was used to extrude the resulting suspension (29x, polycarbonate filter, 0.05 μm) until a clear solution containing small unilamellar vesicles (SUV) was obtained. The SUVs were then analysed (50 nm) using a Zetasizer Nano (ZEN3600, Malvern Instruments, UK) and re-suspended to a final concentration of 1 mg/mL. The measurements were performed using a low volume disposable cuvette at 25°C. […]
A Microcal isothermal titration calorimeter-200 (ITC-200) was used to carry out all ITC experiments. […] Binding isotherms were recorded for peptides (500 μM) titrated into unilamellar phospholipid vesicles (380 μM, total lipid) in the cell. […]
(In ITC the heat of successive injections is recorded.)

≈ marks a conversion by molar mass, not a printed value. Peptide text beside a SMILES is read from it.

Consider `CC(C)C[C@H](NC(=O)[C@H](CCCNC(=N)N)NC(=O)[C@H](CC(C)C)NC(=O)[C@H](CCCCN)NC(=O)[C@H](CC(C)C)NC(=O)[C@H](CCCNC(=N)N)NC(=O)[C@H](CC(C)C)NC(=O)[C@H](CC(C)C)NC(=O)[C@@H](N)CCCNC(=N)N)C(N)=O` [bienK9] (H-RLLRLKLRL-NH2; N-terminus assumed), for which the “% hemolysis, at 250 μM” value in the data set on Human erythrocytes is recorded as 0%. In addition, the Minimum inhibitory concentration with M. luteus (ATCC 49732) is 1.5 µM (≈ 1.77 µg/mL); in the data set on E. coli (ATCC 15597), 3 µM (≈ 3.54 µg/mL); in [1] it was above 50 µM; in the data set on S. aureus (ATCC 6538) it was 12 µM (≈ 14.2 µg/mL); in data set [2], 6 µM (≈ 7.08 µg/mL); in the data set on B. subtilis (ATCC 6633) it was 3 µM (≈ 3.54 µg/mL). The Minimum inhibitory concentration in the data set with S. typhimurium (6192) was 50 µM (≈ 59 µg/mL). Further, the Kd in [3] stood at 2.12 µM.
